Test results as given in patent US20040138316A1 (priority 2001, published 2004).

Key:
parasites = conditions: prior art fumigants; cited from earlier work
man = conditions: cited from earlier work; for toxicity for man: prior art fumigants
insects = test system: insects
Protocol: (§1) Laboratory tests were carried out preliminarily both in a ventilated environment and a confined environment by means of treatments by contact or inhalation with 100% commercial n-Hexane, for the sake of brevity called hereinafter “Hexane” with reference to the performance of the practical experimental tests whose execution procedures follow.

mites = test system: mites
Protocol: as §1

[1] = test system: mites, larvae and adult forms of cheese fly
Protocol: Subsequent tests were conducted in a closed chamber consisting of a box (70 cm×50 cm by 120 cm high) with polypropylene walls as this material is among those not attacked by Hexane such as other synthetic plastic materials among which polyethylene, polyester, polyethylene terephthalates in addition to aluminum, copper, carbon steel and stainless steel. […] On the bottom of this box was located a circular aluminum tank (dia. 22 cm×height 15 cm) on the bottom of which was arranged a copper coil in which was circulated hot liquid to heat to evaporation the Hexane fed into the tank. The material to be tested was placed in the box which was then closed hermetically.
Tests were performed with two different techniques, to wit, at reduced pressure and at atmospheric pressure.
Both by the reduced pressure technique and the atmospheric pressure technique quantities of Hexane variable from 50 ml to 800 ml were fed through a second tap having in it a silicon tube drawing from the bottom of the aluminum tank. By circulating hot liquid in the heating coil the Hexane present in liquid phase in the tank was held at a temperature of 70° C. to 75° C. for the entire period of experimentation in order to achieve complete evaporation of the Hexane. A blower was placed on the bottom of the box for homogeneous distribution of the Hexane vapors in the treatment environment.
The temperature in the box during all the tests and as a function of the material to be treated (biological or not), was included in the range 5° C. to 75° C. The duration of the treatment was between 1 and 72 hours for both procedures (atmospheric pressure or reduced pressure). In the reduced-pressure tests the pressure was held in a range of 0.5N/cm2 to 5N/cm2.
At the end of treatment time the box was reopened and the Hexane vapors allowed to free themselves outward.
(§2) Arthropods were introduced both on nonbiological supports such as glass, printed paper, differently colored fabrics (cotton, silk, linen, skin, wool and synthetic) and on biological materials such as ham, hard wheat pasta and hard crust cheeses. […] Also treated was biological material infested by mites, larvae and adult forms of cheese fly and Galleria mellonella using the entire set of tests described above.

[2] = treated products
From the text: as §2

S=C=S [carbon sulfide]
insecticidal / parasiticidal effectiveness (parasites): high insecticidal effectiveness
toxicity for man (man): high toxicity

CBr [Methyl bromide]
toxicity for man (man): very poisonous

CCCCCC [Hexane, n-Hexane]
abatement power on flies, mosquitoes, cockroaches, corrodentia, thysanura (insects; contact): high abatement power
toxic effect on insects by contact (insects; ventilated environment): significant toxic effect
mites dead 15 minutes after treatment (mites; Petri capsule, treatments of 15 minutes to two hours): all the mites present
toxic activity on arthropods by inhalation (mites; Petri capsule, verifiable after only a few minutes treatment): strong toxic activity
arthropods returned to life within 15 days (mites; returned to optimal conditions 18-20 °C, 80% RH after treatment): none of them returned to life
toxic effect on eggs (hatching) (mites; treatment for longer periods of time): strong hatching reduction
toxic effect on mites by contact (mites; ventilated environment): weak, temporary toxic effect
effect on mites and insects infesting cheese products, mattresses, cushions, sheets, carpet, drapes ([1]; Hexane vapors, closed chamber): same result
effect on parasites infesting ham and dressed pork products ([1]; after 2 hours exposure to Hexane vapors, mites, larvae and adult forms of cheese fly): desired effect on nearly all parasites
reclamation of the product (ham, dressed pork products) ([1]; after 48 hours of treatment): complete reclamation
outcome of closed chamber tests compared with Petri capsule ([1]; approximately 720 g per m3 of air, up to 72 hours, surrounding temperature, atmospheric pressure): confirmed the results obtained in Petri capsule
concentration at which parasiticidal treatment is already considerably effective ([1]; inhalation): 250 g per cubic meter of air
toxicity index for man following contact (man; contact): low toxicity index
acute toxicity index for man by inhalation (man; inhalation): high acute toxicity index
accumulation of toxic substances after treatment [2]: no accumulation of toxic substances

C1CO1 [Ethylene oxide]
toxicity for man (man): highly toxic

ClC(Cl)(Cl)Cl [Carbon tetrachloride]
insecticidal / parasiticidal effectiveness (parasites): slight parasiticidal power
toxicity for man (man): less toxic than carbon sulfide
